These compounds were tested against T1, Human Factor XIIa (Homo sapiens, UniProt P00748) (assay: Determination of FXIIa inhibition (fluorogenic substrate H-DPro-Phe-Arg-AFC, IC50 assay)). Conditions: substrate at Km concentration, 25° C.; category scale; read-out: Human FXII IC50 (nm).
T1 construct: Proteolytic cleavage of FXII to heavy and light chains of FXIIa dramatically increases catalytic activity; purchased Enzyme Research Laboratories
T1 sequence (P00748 373-615 limits assumed): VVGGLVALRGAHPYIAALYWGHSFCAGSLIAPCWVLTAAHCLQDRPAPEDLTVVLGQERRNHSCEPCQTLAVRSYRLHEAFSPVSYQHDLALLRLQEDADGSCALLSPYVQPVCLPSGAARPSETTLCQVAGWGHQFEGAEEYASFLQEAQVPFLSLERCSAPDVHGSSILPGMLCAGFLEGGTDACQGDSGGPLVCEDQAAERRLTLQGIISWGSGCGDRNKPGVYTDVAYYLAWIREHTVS
T1 sequence (P00748 20-372 partner limits assumed): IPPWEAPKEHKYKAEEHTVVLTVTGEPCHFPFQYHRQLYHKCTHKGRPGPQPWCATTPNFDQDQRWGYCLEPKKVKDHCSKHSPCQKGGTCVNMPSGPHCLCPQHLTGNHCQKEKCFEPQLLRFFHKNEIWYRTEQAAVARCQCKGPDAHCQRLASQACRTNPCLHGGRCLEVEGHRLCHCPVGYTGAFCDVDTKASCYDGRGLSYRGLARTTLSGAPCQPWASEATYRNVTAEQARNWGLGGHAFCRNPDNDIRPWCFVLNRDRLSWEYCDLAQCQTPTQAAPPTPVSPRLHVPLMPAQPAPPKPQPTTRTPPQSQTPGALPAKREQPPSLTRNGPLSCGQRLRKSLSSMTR
Type: biochemical
Summary of the method: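 Human FXIIa incubated at 25° C. with fluorogenic H-DPro-Phe-Arg-AFC at its Km concentration plus varying compound levels. Linear fluorescence increase over 5 min taken as % activity; IC50 is concentration halving uninhibited activity.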

SMILES | IC50 [nM]
Cn1ccc(OCC23CN(c4ncc(-c5ccccc5)cn4)C(CNc4cccc5c(N)nccc45)(C2)C3)cc1=O [Example 12060, 4-((1-(((1-Aminoisoquinolin-5-yl)amino)methyl)-2-(5-phenylpyrimidin-2-yl)-2-azabicyclo[2.1.1]hexan-4-yl)methoxy)-1-methylpyridin-2(1H)-one] | 1 to 10
COc1ccc(NC(=O)N2CC3(COc4ccn(C)c(=O)c4)CC2(CNc2cccc4c(N)nccc24)C3)cc1 [Example 12061, 1-(((1-Aminoisoquinolin-5-yl)amino)methyl)-N-(4-methoxyphenyl)-4-(((1-methyl-2-oxo-1,2-dihydropyridin-4-yl)oxy)methyl)-2-azabicyclo[2.1.1]hexane-2-carboxamide] | 1 to 10
COc1ccc(CNC(=O)N2CC3(COc4ccn(C)c(=O)c4)CC2(CNc2cccc4c(N)nccc24)C3)cc1 [Example 12062, 1-(((1-aminoisoquinolin-5-yl)amino)methyl)-N-(4-methoxybenzyl)-4-(((1-methyl-2-oxo-1,2-dihydropyridin-4-yl)oxy)methyl)-2-azabicyclo[2.1.1]hexane-2-carboxamide] | 10 to 100
Cn1ccc(OCC23CN(c4cccnc4)C(CNc4cccc5c(N)nccc45)(C2)C3)cc1=O [Example 12064, 4-((1-(((1-aminoisoquinolin-5-yl)amino)methyl)-2-(pyridin-3-yl)-2-azabicyclo[2.1.1]hexan-4-yl)methoxy)-1-methylpyridin-2(1H)-one] | 10 to 100
Cn1ccc(OCC23CN(c4ccncc4)C(CNc4cccc5c(N)nccc45)(C2)C3)cc1=O [Example 12065, 4-((1-(((1-aminoisoquinolin-5-yl)amino)methyl)-2-(pyridin-4-yl)-2-azabicyclo[2.1.1]hexan-4-yl)methoxy)-1-methylpyridin-2(1H)-one] | 1 to 10
COc1ccccc1CNC(=O)N1CC2(COc3ccn(C)c(=O)c3)CC1(CNc1cccc3c(N)nccc13)C2 [Example 12067, 1-(((1-aminoisoquinolin-5-yl)amino)methyl)-N-(2-methoxybenzyl)-4-(((1-methyl-2-oxo-1,2-dihydropyridin-4-yl)oxy)methyl)-2-azabicyclo[2.1.1]hexane-2-carboxamide] | 10 to 100
Cn1ccc(OCC23CN(C(=O)Nc4ccccc4F)C(CNc4cccc5c(N)nccc45)(C2)C3)cc1=O [Example 12068, 1-(((1-aminoisoquinolin-5-yl)amino)methyl)-N-(2-fluorophenyl)-4-(((1-methyl-2-oxo-1,2-dihydropyridin-4-yl)oxy)methyl)-2-azabicyclo[2.1.1]hexane-2-carboxamide] | 1 to 10
Cn1ccc(OCC23CN(C(=O)NCc4cccc(C(F)(F)F)c4)C(CNc4cccc5c(N)nccc45)(C2)C3)cc1=O [Example 12069, 1-(((1-aminoisoquinolin-5-yl)amino)methyl)-4-(((1-methyl-2-oxo-1,2-dihydropyridin-4-yl)oxy)methyl)-N-(3-(trifluoromethyl)benzyl)-2-azabicyclo[2.1.1]hexane-2-carboxamide] | 10 to 100
Cn1ccc(OCC23CN(C(=O)NCc4ccc5occc5c4)C(CNc4cccc5c(N)nccc45)(C2)C3)cc1=O [Example 12070, 1-(((1-aminoisoquinolin-5-yl)amino)methyl)-N-(benzofuran-5-ylmethyl)-4-(((1-methyl-2-oxo-1,2-dihydropyridin-4-yl)oxy)methyl)-2-azabicyclo[2.1.1]hexane-2-carboxamide] | 10 to 100
COc1ccc(C(=O)N2CC3(COc4ccn(C)c(=O)c4)CC2(CNc2cccc4c(N)nccc24)C3)cc1 [Example 12071, 4-((1-(((1-aminoisoquinolin-5-yl)amino)methyl)-2-(4-methoxybenzoyl)-2-azabicyclo[2.1.1]hexan-4-yl)methoxy)-1-methylpyridin-2(1H)-one] | 10 to 100
Cn1ccc(OCC23CN(C(=O)NCc4ccccc4)C(CNc4c(F)ccc5c(N)nccc45)(C2)C3)cc1=O [Example 12072, 1-(((1-amino-6-fluoroisoquinolin-5-yl)amino)methyl)-N-benzyl-4-(((1-methyl-2-oxo-1,2-dihydropyridin-4-yl)oxy)methyl)-2-azabicyclo[2.1.1]hexane-2-carboxamide] | 300 to 1000
CC(=O)N1CC2(CNc3cccc4c(N)nccc34)CC1(COc1ccn(C)c(=O)c1)C2 [Example 13003, 4-((2-acetyl-4-(((1-aminoisoquinolin-5-yl)amino)methyl)-2-azabicyclo[2.1.1]hexan-1-yl)methoxy)-1-methylpyridin-2(1H)-one] | 100 to 300

Further lines, results first:

IC50 [nM] | SMILES
100 to 300 | Cn1ccc(OCC23CC(CNc4cccc5c(N)nccc45)(CN2C(=O)Oc2ccccc2Cl)C3)cc1=O [Example 13004, 2-chlorophenyl 4-(((1-aminoisoquinolin-5-yl)amino)methyl)-1-(((1-methyl-2-oxo-1,2-dihydropyridin-4-yl)oxy)methyl)-2-azabicyclo[2.1.1]hexane-2-carboxylate]
100 to 300 | Cn1ccc(OCC23CC(CNc4cccc5c(N)nccc45)(CN2C(=O)OC(C)(C)C)C3)cc1=O [Example 13005, tert-butyl 4-(((1-aminoisoquinolin-5-yl)amino)methyl)-1-(((1-methyl-2-oxo-1,2-dihydropyridin-4-yl)oxy)methyl)-2-azabicyclo[2.1.1]hexane-2-carboxylate]
10 to 100 | Cn1ccc(OCC23CC(CNc4cccc5c(N)nccc45)(CN2C(=O)Oc2ccccc2)C3)cc1=O [Example 13006, phenyl 4-(((1-aminoisoquinolin-5-yl)amino)methyl)-1-(((1-methyl-2-oxo-1,2-dihydropyridin-4-yl)oxy)methyl)-2-azabicyclo[2.1.1]hexane-2-carboxylate]
100 to 300 | Cn1ccc(OCC23CC(CNc4cccc5c(N)nccc45)(CN2)C3)cc1=O [Example 13007, 4-((4-(((1-aminoisoquinolin-5-yl)amino)methyl)-2-azabicyclo[2.1.1]hexan-1-yl)methoxy)-1-methylpyridin-2(1H)-one]
300 to 1000 | Cn1ccc(OCC23CC(CNc4cccc5c(N)nccc45)(CN2C(=O)CCc2ccccc2)C3)cc1=O [Example 13008, 4-((4-(((1-aminoisoquinolin-5-yl)amino)methyl)-2-(3-phenylpropanoyl)-2-azabicyclo[2.1.1]hexan-1-yl)methoxy)-1-methylpyridin-2(1H)-one]
10 to 100 | Cn1ccc(OCC23CC(CNc4cccc5c(N)nccc45)(CN2C(=O)OCc2cccnc2)C3)cc1=O [Example 13009, Pyridin-3-ylmethyl4-(((1-aminoisoquinolin-5-yl)amino)methyl)-1-(((1-methyl-2-oxo-1,2-dihydropyridin-4-yl)oxy)methyl)-2-azabicyclo[2.1.1]hexane-2-carboxylate]
100 to 300 | Cn1ccc(OCC23CC(CNc4cccc5c(N)nccc45)(CN2C(=O)CCc2cccnc2)C3)cc1=O [Example 13010, 4-((4-(((1-aminoisoquinolin-5-yl)amino)methyl)-2-(3-(pyridin-3-yl)propanoyl)-2-azabicyclo[2.1.1]hexan-1-yl)methoxy)-1-methylpyridin-2(1H)-one]
300 to 1000 | CN(Cc1ccccc1)C(=O)N1CC2(CNc3cccc4c(N)nccc34)CC1(COc1ccn(C)c(=O)c1)C2 [Example 13011, 4-(((1-aminoisoquinolin-5-yl)amino)methyl)-N-benzyl-N-methyl-1-(((1-methyl-2-oxo-1,2-dihydropyridin-4-yl)oxy)methyl)-2-azabicyclo[2.1.1]hexane-2-carboxamide]
10 to 100 | Cn1ccc(OCC23CC(CNc4cccc5c(N)nccc45)(CN2C(=O)NCc2ccccc2)C3)cc1=O [Example 13012, 4-(((1-aminoisoquinolin-5-yl)amino)methyl)-N-benzyl-1-(((1-methyl-2-oxo-1,2-dihydropyridin-4-yl)oxy)methyl)-2-azabicyclo[2.1.1]hexane-2-carboxamide]
100 to 300 | Cn1ccc(OCC23CC(CNc4cccc5c(N)nccc45)(CN2C(=O)OCc2ccccn2)C3)cc1=O [Example 13013, pyridin-2-ylmethyl 4-(((1-aminoisoquinolin-5-yl)amino)methyl)-1-(((1-methyl-2-oxo-1,2-dihydropyridin-4-yl)oxy)methyl)-2-azabicyclo[2.1.1]hexane-2-carboxylate]
100 to 300 | Cn1ccc(OCC23CC(CNc4cccc5c(N)nccc45)(CN2S(=O)(=O)CCc2ccccc2)C3)cc1=O [Example 13014, 4-((4-(((1-aminoisoquinolin-5-yl)amino)methyl)-2-(phenethylsulfonyl)-2-azabicyclo[2.1.1]hexan-1-yl)methoxy)-1-methylpyridin-2(1H)-one]
100 to 300 | Cn1ccc(OCC23CC(CNc4cccc5c(N)nccc45)(CN2CCCc2ccccc2)C3)cc1=O [Example 13015, 4-((4-(((1-aminoisoquinolin-5-yl)amino)methyl)-2-(3-phenylpropyl)-2-azabicyclo[2.1.1]hexan-1-yl)methoxy)-1-methylpyridin-2(1H)-one]

— patent US20240327412A1, “FACTOR XIIA INHIBITORS” (KALVISTA PHARMACEUTICALS LIMITED, priority 2021, published 2024)
